Laboratory results published in ChEMBL document CHEMBL3885861, “Open TG-GATES”.

Species on record: Rattus norvegicus
Assay: Open TG-GATES - Regimen: Daily Repeat
Format: toxicity, organism-based, Sprague-Dawley
Parameters: regimen Daily Repeat, gender Male, age 6 weeks
Conditions: in vivo, po, 300 mg/kg, route gavage, dose level High; for APTT / Bas / Eos / Fbg / Hb / Ht / Lym / MCH / MCHC / MCV / Mono / Neu / PT / Plat / RBC / Ret / WBC: tissue Blood; for KIDNEY_L / KIDNEY_R / KIDNEY_TOTAL: tissue Kidney; for LIVER: tissue Liver; for A/G / ALP / ALT / AST / BUN / CRE / Ca / Cl / DBIL / GLC / IP / K / LDH / Na / PL / RALB / TBIL / TC / TG / TP / gamma-GTP: tissue Plasma

CCCNC(=O)NS(=O)(=O)c1ccc(Cl)cc1 [CHLORPROPAMIDE]
TERMINAL_BW (72 h, time 3 day): 191.6 g
APTT (72 h, time 3 day): 18.9 s
Bas (72 h, time 3 day): 0.2%
Eos (72 h, time 3 day): 1%
Fbg (72 h, time 3 day): 316.6 mg/dL
Hb (72 h, time 3 day): 13.3 g/dL
Ht (72 h, time 3 day): 39.6%
Lym (72 h, time 3 day): 80.6%
MCH (72 h, time 3 day): 20.6 pg
MCHC (72 h, time 3 day): 33.5%
MCV (72 h, time 3 day): 61.6 fL
Mono (72 h, time 3 day): 1.8%
Neu (72 h, time 3 day): 15.2%
PT (72 h, time 3 day): 16.2 s
Plat (72 h, time 3 day): 110.6 x10_4/uL
RBC (72 h, time 3 day): 645.4 x10_4/ul
Ret (72 h, time 3 day): 3.8%
WBC (72 h, time 3 day): 88.9 x10_2/uL
KIDNEY_L (72 h, time 3 day): 0.8 g
KIDNEY_R (72 h, time 3 day): 0.8 g
KIDNEY_TOTAL (72 h, time 3 day): 1.7 g
LIVER (72 h, time 3 day): 8.1 g
A/G (72 h, time 3 day): 0.9
ALP (72 h, time 3 day): 1546.2 IU/L
ALT (72 h, time 3 day): 46 IU/L
AST (72 h, time 3 day): 64.2 IU/L
BUN (72 h, time 3 day): 14.8 mg/dL
CRE (72 h, time 3 day): 0.2 mg/dL
Ca (72 h, time 3 day): 10.6 mg/dL
Cl (72 h, time 3 day): 109.8 meq/L
DBIL (72 h, time 3 day): 0.002 mg/dL
GLC (72 h, time 3 day): 166 mg/dL
IP (72 h, time 3 day): 6.6 mg/dL
K (72 h, time 3 day): 3.5 meq/L
LDH (72 h, time 3 day): 63.2 IU/L
Na (72 h, time 3 day): 142.4 meq/L
PL (72 h, time 3 day): 154.8 mg/dL
RALB (72 h, time 3 day): 2.6 g/dL
TBIL (72 h, time 3 day): 0.02 mg/dL
TC (72 h, time 3 day): 84.2 mg/dL
TG (72 h, time 3 day): 55.6 mg/dL
TP (72 h, time 3 day): 5.7 g/dL
gamma-GTP (72 h, time 3 day): 1.2 IU/L
TERMINAL_BW ([…], time 7 day): 213.5 g
TERMINAL_BW ([…], time 14 day): 232.5 g
TERMINAL_BW ([…], time 28 day): 294.1 g
APTT ([…], time 7 day): 20.1 s
Bas ([…], time 7 day): 0%
Eos ([…], time 7 day): 1%
Fbg ([…], time 7 day): 286.8 mg/dL
Hb ([…], time 7 day): 13.1 g/dL
Ht ([…], time 7 day): 40.1%
Lym ([…], time 7 day): 81%
MCH ([…], time 7 day): 20.3 pg
MCHC ([…], time 7 day): 32.8%
MCV ([…], time 7 day): 62 fL
Mono ([…], time 7 day): 2.6%
Neu ([…], time 7 day): 14.6%
PT ([…], time 7 day): 16.4 s
Plat ([…], time 7 day): 111.5 x10_4/uL
RBC ([…], time 7 day): 647.8 x10_4/ul
Ret ([…], time 7 day): 5.6%
WBC ([…], time 7 day): 95.7 x10_2/uL
APTT ([…], time 14 day): 33.4 s
Bas ([…], time 14 day): 0%
Eos ([…], time 14 day): 0.8%
Fbg ([…], time 14 day): 283.2 mg/dL
Hb ([…], time 14 day): 14.4 g/dL
Ht ([…], time 14 day): 43.1%
Lym ([…], time 14 day): 83.6%
MCH ([…], time 14 day): 20.3 pg
MCHC ([…], time 14 day): 33.5%
MCV ([…], time 14 day): 60.5 fL
Mono ([…], time 14 day): 2.2%
Neu ([…], time 14 day): 12%
PT ([…], time 14 day): 16.6 s
Plat ([…], time 14 day): 105.9 x10_4/uL
RBC ([…], time 14 day): 712.6 x10_4/ul
Ret ([…], time 14 day): 3.8%
WBC ([…], time 14 day): 79.2 x10_2/uL
APTT ([…], time 28 day): 22.6 s
Bas ([…], time 28 day): 0.2%
Eos ([…], time 28 day): 0.8%
Fbg ([…], time 28 day): 282.6 mg/dL
Hb ([…], time 28 day): 14.5 g/dL
Ht ([…], time 28 day): 44.1%
Lym ([…], time 28 day): 78.2%
MCH ([…], time 28 day): 18.5 pg
MCHC ([…], time 28 day): 32.9%
MCV ([…], time 28 day): 56.1 fL
Mono ([…], time 28 day): 2.8%
Neu ([…], time 28 day): 16.8%
PT ([…], time 28 day): 16.7 s
Plat ([…], time 28 day): 93.9 x10_4/uL
RBC ([…], time 28 day): 786 x10_4/ul
Ret ([…], time 28 day): 2.3%
WBC ([…], time 28 day): 126.5 x10_2/uL
KIDNEY_L ([…], time 7 day): 0.9 g
KIDNEY_R ([…], time 7 day): 0.9 g
KIDNEY_TOTAL ([…], time 7 day): 1.8 g
KIDNEY_L ([…], time 14 day): 1 g
KIDNEY_R ([…], time 14 day): 1 g
KIDNEY_TOTAL ([…], time 14 day): 2.1 g
KIDNEY_L ([…], time 28 day): 1.2 g
KIDNEY_R ([…], time 28 day): 1.2 g
KIDNEY_TOTAL ([…], time 28 day): 2.4 g
LIVER ([…], time 7 day): 9.7 g
LIVER ([…], time 14 day): 11 g
LIVER ([…], time 28 day): 13.2 g
A/G ([…], time 7 day): 0.9
ALP ([…], time 7 day): 1590.8 IU/L
ALT ([…], time 7 day): 48 IU/L
AST ([…], time 7 day): 69.2 IU/L
BUN ([…], time 7 day): 18.6 mg/dL
CRE ([…], time 7 day): 0.2 mg/dL
Ca ([…], time 7 day): 10.9 mg/dL
Cl ([…], time 7 day): 110.8 meq/L
DBIL ([…], time 7 day): 0.004 mg/dL
GLC ([…], time 7 day): 187 mg/dL
IP ([…], time 7 day): 7.6 mg/dL
K ([…], time 7 day): 3.3 meq/L
LDH ([…], time 7 day): 68.4 IU/L
Na ([…], time 7 day): 145.2 meq/L
PL ([…], time 7 day): 165.2 mg/dL
RALB ([…], time 7 day): 2.6 g/dL
TBIL ([…], time 7 day): 0.016 mg/dL
TC ([…], time 7 day): 82.2 mg/dL
TG ([…], time 7 day): 60.2 mg/dL
TP ([…], time 7 day): 5.7 g/dL
gamma-GTP ([…], time 7 day): 1 IU/L
A/G ([…], time 14 day): 0.8
ALP ([…], time 14 day): 1780 IU/L
ALT ([…], time 14 day): 51 IU/L
AST ([…], time 14 day): 72.2 IU/L
BUN ([…], time 14 day): 17.6 mg/dL
CRE ([…], time 14 day): 0.2 mg/dL
Ca ([…], time 14 day): 10.3 mg/dL
Cl ([…], time 14 day): 111.2 meq/L
DBIL ([…], time 14 day): 0.004 mg/dL
GLC ([…], time 14 day): 182.6 mg/dL
IP ([…], time 14 day): 7.8 mg/dL
K ([…], time 14 day): 3.2 meq/L
LDH ([…], time 14 day): 85 IU/L
Na ([…], time 14 day): 145.2 meq/L
PL ([…], time 14 day): 158 mg/dL
RALB ([…], time 14 day): 2.7 g/dL
TBIL ([…], time 14 day): 0.012 mg/dL
TC ([…], time 14 day): 75 mg/dL
TG ([…], time 14 day): 72.4 mg/dL
TP ([…], time 14 day): 5.9 g/dL
gamma-GTP ([…], time 14 day): 1 IU/L
A/G ([…], time 28 day): 0.8
ALP ([…], time 28 day): 1231.8 IU/L
ALT ([…], time 28 day): 47.8 IU/L
AST ([…], time 28 day): 70 IU/L
BUN ([…], time 28 day): 20 mg/dL
CRE ([…], time 28 day): 0.2 mg/dL
Ca ([…], time 28 day): 10.5 mg/dL
Cl ([…], time 28 day): 110.4 meq/L
DBIL ([…], time 28 day): 0.002 mg/dL
GLC ([…], time 28 day): 196.4 mg/dL
IP ([…], time 28 day): 6.7 mg/dL
K ([…], time 28 day): 3 meq/L
LDH ([…], time 28 day): 67.4 IU/L
Na ([…], time 28 day): 146.4 meq/L
PL ([…], time 28 day): 148.6 mg/dL
RALB ([…], time 28 day): 2.7 g/dL
TBIL ([…], time 28 day): 0.008 mg/dL
TC ([…], time 28 day): 65.6 mg/dL
TG ([…], time 28 day): 89.4 mg/dL
TP ([…], time 28 day): 6 g/dL
gamma-GTP ([…], time 28 day): 1.2 IU/L
